Values of other authors in patent US20240294453A1, “Deuterated agonists and methods of use” (priority 2018, published 2024).

Tested on: subjects with schizophrenia
[1] = 5 mg or 50 mg orally once daily, 24 weeks

**Q.** Which results are given for `O=C(N[C@@H]1C2CCN(CC2)[C@H]1Cc1cccnc1)c1cc2ccccc2o1` [TC-5619]?
**A.** scores of CSB, UPSA-B, PANSS, CGI-I, CGI-S, or SGI-Cog vs placebo, P (none favored TC-5619) [1]: > 0.05; tolerability [1]: generally well tolerated; SANS score vs placebo, 2-tailed P (5 mg, week 24): 0.159; benefit in some outcome measures in tobacco users (tobacco users, no concordance by dose, country, gender): Sporadic statistical benefit; Scale for the Assessment of Negative Symptoms (SANS) composite score, benefit vs placebo (week 24, orally once daily, 5 mg or 50 mg, added to a new-generation antipsychotic): no statistical benefit
